Source: patent US8258305B2, “Dopamine transporter inhibitors for use in treatment of movement disorders and other CNS indications” (Prexa Pharmaceuticals, Inc., priority 2005, dated 2012)
“Also recorded” adds a separate entry of the source.

Key:
NET [1] = molecular target: NET (Rattus norvegicus, UniProt Q63380); assay: Functional uptake profile, rat NET; type: cell-based
[2] = tested on: rat (immobility in forced swim test); assay: Forced swim test (behavioral despair assay); type: in vivo
Source text: The objective of this study was to assess the antidepressant effects of test compounds in the behaviral despair assay in rats using a modification of a method described by Porsolt R. D. et al. in Behavioral despair in rats: a new model sensitive to antidepressant treatment, Eur. J. Pharmacol., 47: 379-391, 1978; Porsolt et al., Nature 266: 730-732, 1977; and Porsolt et al., in Psychopharmacology, Olivier, Mos, and Slangen (eds) Birkhauser Verlag, Basel, pp. 137-159, 1991. Briefly, when mice (or rats) are forced to swim in a cylinder from which no escape is possible, they readily adopt a characteristic immobile posture and make no further attempts to escape except for small movements needed to keep floating. The immobility is considered by some to reflect a “depressive mood” (Porsolt et al., Nature 266: 730-732, 1977) in which animals cease to struggle to escape the aversive situation. The immobility induced by the procedure is influenced by a wide variety of antidepressants (Porsolt et al., in Psychopharmacology, Olivier, Mos, and Slangen (eds). Birkhauser. Verlag, Basel, pp. 137-159, 1991) and has a good predictive validity in that it detects antidepressants with different mechanisms of action (TCAs, SSRIs, MAOIs, and other atypical ones). The test is sensitive to muscle-relaxant (benzodiazepines) and sedative (neuroleptics) effects, leading to enhanced immobility (Porsolt et al., supra).
In a typical experiment, animals are placed singly into a cylinder (e.g. 46×30 cm) containing fresh water at about 20° C. for 6 minutes. The activity (or immobility) of the animal is measured by an observer minute by minute. In more detail, the animals were preconditioned in a pretest session, where the rats were individually forced to swim inside a vertical plexiglass cylinder containing water maintained at 19-20° C. After 15 minutes in the water, they were allowed to dry for 15 minutes in a heated enclosure. Twenty four hours later, the compounds were administered either intraperitoneally or orally to the animals. One hour after administration of the test compound, animals were put back into the cylinder containing water. The total duration of immobility was measured during the last 4 minutes of a 6 minute test.
The results are expressed as the percentage of variation of the total duration of immobility calculated from the mean value of the vehicle-treated group (% variation=[(immobility duration of vehicle−immobility duration of test compound)/(immobility duration of vehicle)]×100%). Only compounds which exibit a statistically significant variation (e.g. >30%) are considered effective in this in vivo model.
Sibutramine (2.0 and 2.5 mg/kg), Bupropion (7.5 and 10 mg/kg), and Imipramine (30 mg/kg) were similarly administered as controls. […] Asterisks indicate highly statistical significant results.
A fourth DAT inhibitor, CNS-28,002 was administered p.o. as a racemic mixture of diastereomers at either 35 or 75 mg/kg. Sibutramine (5.0 and 3.75 mg/kg), Bupropion (30 and 40 mg/kg), and Imipramine (100 mg/kg) were similarly administered as controls.
Sibutramine (5.0 and 3.75 mg/kg), Bupropion (30 and 40 mg/kg), and Imipramine (100 mg/kg) were similarly administered as controls.

rat = assay: Acute single-dose toxicology (maximum tolerated dose); type: in vivo; conditions: for observed toxicological effects: rat (n = 5), i.v., observed for 72 hours
Experimental: An in vivo evaluation was carried out to determine the maximum tolerated dose of numerous test compounds in rat. The compounds were administered i.v., and the animals were then observed for 72 hours.
Briefly, experimental rats, in groups of 5 animals, were administered with various doses of respective DAT inhibitors (e.g. 30, 90, 120, and 200 mg/kg), and the observed toxicological effects were recorded.

NET [3] = molecular target: T1, NET (Homo sapiens, UniProt P23975); assay: Functional norephinephrine uptake inhibition, MDCK cell line; type: cell-based
T1 construct: expressed in transfected cells; host or cells: MDCK
T1 sequence (P23975 whole entry): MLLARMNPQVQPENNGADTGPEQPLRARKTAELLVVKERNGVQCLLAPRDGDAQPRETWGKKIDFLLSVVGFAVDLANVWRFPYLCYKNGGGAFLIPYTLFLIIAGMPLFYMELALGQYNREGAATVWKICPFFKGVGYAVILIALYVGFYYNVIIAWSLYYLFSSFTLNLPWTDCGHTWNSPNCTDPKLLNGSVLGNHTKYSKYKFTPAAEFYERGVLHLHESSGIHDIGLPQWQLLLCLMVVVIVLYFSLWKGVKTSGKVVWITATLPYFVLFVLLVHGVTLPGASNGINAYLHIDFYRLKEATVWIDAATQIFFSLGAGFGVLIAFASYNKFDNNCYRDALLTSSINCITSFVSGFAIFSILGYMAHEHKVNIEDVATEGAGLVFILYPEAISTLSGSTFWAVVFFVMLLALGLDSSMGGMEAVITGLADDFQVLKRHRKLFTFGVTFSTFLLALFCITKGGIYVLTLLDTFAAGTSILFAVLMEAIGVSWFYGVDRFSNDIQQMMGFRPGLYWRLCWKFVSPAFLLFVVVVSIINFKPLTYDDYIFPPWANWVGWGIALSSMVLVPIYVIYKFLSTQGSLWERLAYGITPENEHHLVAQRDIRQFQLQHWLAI
Experimental: (§1) Functional activity of the compounds was determined in vitro in cellular assays using recombinant human cell lines.

5-HT (serotonine uptake) = molecular target: T2, 5-HT (serotonine uptake) (Homo sapiens, UniProt P31645); type: cell-based; conditions: functional uptake
T2 construct: expressed in transfected cells; host or cells: HEK-293
T2 sequence (P31645 whole entry): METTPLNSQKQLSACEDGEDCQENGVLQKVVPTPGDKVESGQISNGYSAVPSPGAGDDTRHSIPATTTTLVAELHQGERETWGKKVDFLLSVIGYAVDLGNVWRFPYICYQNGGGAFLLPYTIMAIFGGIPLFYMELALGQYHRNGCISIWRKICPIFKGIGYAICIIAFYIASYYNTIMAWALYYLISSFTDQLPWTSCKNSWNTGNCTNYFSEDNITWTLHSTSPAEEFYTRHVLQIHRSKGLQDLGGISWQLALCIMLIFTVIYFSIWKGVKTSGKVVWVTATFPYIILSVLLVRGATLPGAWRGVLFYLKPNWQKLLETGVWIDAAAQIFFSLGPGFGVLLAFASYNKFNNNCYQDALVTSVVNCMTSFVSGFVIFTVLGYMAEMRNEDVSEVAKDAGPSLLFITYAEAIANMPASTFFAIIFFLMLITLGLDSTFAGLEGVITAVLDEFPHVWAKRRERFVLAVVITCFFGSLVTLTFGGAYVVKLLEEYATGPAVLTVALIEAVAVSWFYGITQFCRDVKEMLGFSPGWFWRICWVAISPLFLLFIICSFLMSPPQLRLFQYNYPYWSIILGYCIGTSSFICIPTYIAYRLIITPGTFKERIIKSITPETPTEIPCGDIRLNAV
Experimental: as §1

DAT = molecular target: T3, DAT (Homo sapiens, UniProt Q01959); type: cell-based; conditions: functional uptake
T3 construct: expressed in transfected cells
T3 sequence (Q01959 whole entry): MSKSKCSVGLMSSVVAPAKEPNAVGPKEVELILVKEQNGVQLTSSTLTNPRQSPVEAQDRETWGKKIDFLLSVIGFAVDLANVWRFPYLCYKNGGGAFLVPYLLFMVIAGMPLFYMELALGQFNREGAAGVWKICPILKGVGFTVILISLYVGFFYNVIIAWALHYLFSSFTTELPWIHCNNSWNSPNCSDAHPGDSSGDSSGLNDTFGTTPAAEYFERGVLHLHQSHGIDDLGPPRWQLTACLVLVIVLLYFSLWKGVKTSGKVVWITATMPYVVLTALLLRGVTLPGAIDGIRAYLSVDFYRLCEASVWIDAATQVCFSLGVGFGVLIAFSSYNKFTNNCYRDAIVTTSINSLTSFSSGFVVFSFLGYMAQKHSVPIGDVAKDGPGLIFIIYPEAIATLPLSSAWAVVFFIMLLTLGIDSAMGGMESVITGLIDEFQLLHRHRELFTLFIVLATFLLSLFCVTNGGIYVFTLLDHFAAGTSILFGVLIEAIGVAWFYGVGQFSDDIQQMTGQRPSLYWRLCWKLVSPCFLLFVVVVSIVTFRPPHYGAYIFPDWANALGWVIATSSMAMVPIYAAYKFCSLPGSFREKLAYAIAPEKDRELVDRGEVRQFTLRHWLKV
Experimental: as §1

Sprague-Dawley rats = assay: 7-day multidose oral dosing toxicology study; conditions: 7 days; for observed symptoms: Sprague-Dawley rats (n = 6; 3M/3F), oral
Experimental: The oral doses tested are 50 mg/kg/day, 100 mg/kg/day, 200 mg/kg/day, and 400 mg/kg/day.

[4] = i.p., e.g. 7.5 and 15 mg/kg, racemic mixtures of diastereomers, FIG. 2
[5] = p.o., 35 or 75 mg/kg, FIG. 3 and FIG. 4
[6] = single dose 200 mg/kg, 200 mg/kg

Sequence of NET (Rattus norvegicus, UniProt Q63380) (Q63380 1-617): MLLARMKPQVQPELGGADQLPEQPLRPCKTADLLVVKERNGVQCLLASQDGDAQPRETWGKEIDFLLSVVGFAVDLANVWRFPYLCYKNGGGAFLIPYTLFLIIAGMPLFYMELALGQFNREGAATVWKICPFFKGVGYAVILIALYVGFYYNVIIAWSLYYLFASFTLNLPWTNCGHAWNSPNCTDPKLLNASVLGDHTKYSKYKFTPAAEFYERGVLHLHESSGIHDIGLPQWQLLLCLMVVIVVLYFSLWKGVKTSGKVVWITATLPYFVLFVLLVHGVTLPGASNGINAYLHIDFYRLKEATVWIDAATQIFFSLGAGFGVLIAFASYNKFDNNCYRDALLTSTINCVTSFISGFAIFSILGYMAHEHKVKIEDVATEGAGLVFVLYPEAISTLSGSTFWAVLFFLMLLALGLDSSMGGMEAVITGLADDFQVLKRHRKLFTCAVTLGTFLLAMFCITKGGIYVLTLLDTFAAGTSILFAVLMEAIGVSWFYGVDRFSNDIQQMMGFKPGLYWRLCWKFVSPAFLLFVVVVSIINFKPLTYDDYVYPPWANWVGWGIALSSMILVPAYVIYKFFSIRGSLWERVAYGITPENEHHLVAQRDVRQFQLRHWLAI

CC1CCN(CC2(c3ccc(Cl)cc3)CCC2)CC1COc1ccc(C(F)(F)F)cc1 (centres unmarked) [CNS-27,100]
EC50 (NET [1]): 1000 nM
in vivo efficacy in forced swim test compared with commercial drugs [2, 4]: performed equally well, if not better, than the commercial drugs Sibutramine, Bupropion, and Imipramine
in vivo efficacy in forced swim test compared with commercial drugs [2, 5]: performed equally well, if not better, than the commercial drugs Sibutramine, Bupropion, and Imipramine
observed toxicological effects (rat; [6]): decreased grip strength, and slight depression
doses tolerated well with no significant observed symptoms (rat; rat, single dose): below 120 mg/kg

CC1C(COc2ccc(C(F)(F)F)cc2)CCCN1CC(O)C1(c2ccc(Cl)cc2)CCC1 (centres unmarked) [CNS-28,002]
in vivo efficacy in forced swim test compared with commercial drugs [2, 5]: performed equally well, if not better, than the commercial drugs Sibutramine, Bupropion, and Imipramine
observed toxicological effects (rat; [6]): no observed symptoms

CC1CCC(COc2ccc(C(F)(F)F)cc2)CN1CC1(c2ccc(Cl)cc2)CCC1 (centres unmarked) [CNS-28,100]
EC50 (NET [1]): 300 nM
in vivo efficacy in forced swim test compared with commercial drugs [2, 4]: performed equally well, if not better, than the commercial drugs Sibutramine, Bupropion, and Imipramine

CC1CCC(COc2ccc(C(F)(F)F)cc2)CN1CC(O)C1(c2ccc(Cl)cc2)CCC1 (centres unmarked) [CNS-28,200]
in vivo efficacy in forced swim test compared with commercial drugs [2, 4]: performed equally well, if not better, than the commercial drugs Sibutramine, Bupropion, and Imipramine
observed toxicological effects (rat; single dose 120 mg/kg, 120 mg/kg): decreased grip strength and limb tone and convulsions
observed toxicological effects (rat; [6]): Convulsions
toxic dose relative to the effective dose shown in FIG. 2 (rat; rat, dose with convulsions vs forced swim test effective dose): about 10 times

CC(C)C[C@@H](N)C1(c2ccc(Cl)cc2)CCC1 [R-DDMS]
EC50 (NET [3]): 200 nM
EC50 (5-HT (serotonine uptake)): 1500 nM
EC50 (DAT): 100 nM

CN[C@H](CC(C)C)C1(c2ccc(Cl)cc2)CCC1 [R-DMS]
EC50 (NET [3]): 300 nM
EC50 (5-HT (serotonine uptake)): 1500 nM
EC50 (DAT): 30 nM

CC(C)CC(N(C)C)C1(c2ccc(Cl)cc2)CCC1 (centres unmarked) [Sibutramine]
observed symptoms (Sprague-Dawley rats; 100 mg/kg/day): decreased grip strength, depression
observed symptoms (Sprague-Dawley rats; 400 mg/kg/day): convulsions; also recorded: Convulsions;
deaths (number of animals) (Sprague-Dawley rats; n = 6, oral, 200 mg/kg/day): 2 deaths
self mutilation (number of animals) (Sprague-Dawley rats; n = 6, oral, 200 mg/kg/day): 6 self mutilation
